# pIC50: −log10 of the molar value.
# What was measured:
# [1] = test system: MDA-MB-231 cells; experiment: Proteomics analysis of degradation selectivity; format: cell-based, human; settings: 5 μM, 8 hours
# Experimental: A proteomics analysis was performed to assess the selectivity of degradation by YX-02-030. MDA-MB-231 cells were treated for 8 hours with 5 μM of YX-02-030 or DMSO in triplicate and processed to provide 25 μg of protein loaded on a 10% acrylamide gel. The entire protein-containing gel regions were excised, digested with trypsin and analyzed by liquid chromatography tandem mass spectrometry (LC-MS/MS) using a 240-min gradient as described (Chae et al., 2016). Peptide sequences were identified using MaxQuant 1.6.3.3 (Cox & Mann, 2008). MS/MS spectra were searched against a UniProt human protein database. […] Under these experimental conditions Mdm2 was not able to be detected either in the treated or untreated samples.
# [2] = test system: MDA-MB-231 and MDA-MB-436 cells; experiment: Colony formation assay; format: cell-based, human; set-up: unit of the concentration uncertain; settings: 12 days
# Experimental: FIGS. 21A-21E show the apoptosis induction of p53-inactivated TNBC cells in 2D and 3D cultures by the MDM2-PROTAC YX-02-030. A-B. Colony formation assays (A. Triplicate, 12 days) and mammosphere formation (B. Triplicate 72 hrs) of MDA-MB-231 and MDA-MB-436 cells in the presence of the indicated compounds or DMSO control (−); representative pictures shown. C-E. Formed mammospheres of MDA-MB-231 and MDA-MB-436 cells were treated with the compounds indicated or DMSO control (−), and area (C. n=10 mammospheres, relative to pre-treatment area, 72 hr), real-time imaging (IncuCyte) and quantification of Caspase-3/7 activity (D. n=4-5 wells/compound), and survival/ATP assays (E. Quadruplicate, 72 hr) were performed; representative images shown; scale bar 300 m. Mean±SEM (A-C and E). For A, *P<0.0001 and **P<0.0001, comparing 1 M and 2 M PROTAC, respectively, to control compounds and DMSO vehicle control. For B, *P<0.0046, **P<0.0001, and ***P<0.0001, comparing 0.5 M, 1 M, and 2 M PROTAC, respectively, to control compounds and DMSO vehicle control. For C, *P<0.0001 and **P<0.0001, comparing 2 M and 4 M/6 M PROTAC, respectively, to control compounds and DMSO vehicle control. […]
# The ability of the PROTAC-mediated degradation of MDM2 to alter the clonogenic potential of p53-inactivated TNBC cells was evaluated by performing colony formation assays with MDA-MB-231 and MDA-MB-436 cells. […]
# [3] = test system: SCC-25; experiment: Cell death of other cancer cell lines: SCC-25; format: cell-based; settings: Homo sapiens; SCC-25, Head & Neck
# Experimental: The PROTACs prepared herein were tested for their use in other cancer cell lines to determine activity in multiple different types of cancer.
# [4] = test system: TNBC patient-derived explants; experiment: Patient-derived TNBC explants; format: cell-based, human
# Experimental: (§1) FIGS. 27A-27E show TP53 mutant TNBC patient-derived explants undergo apoptosis following treatment with the MDM2-PROTAC YX-02-030. A. TP53 sequenced in five fresh TNBC patient samples and used in explant and 3D mammosphere cultures. B-C. TNBC patient-derived explants were treated with the compounds indicated and Western blotting (B) and immunohistochemistry (IHC) of FFPE sections for cleaved Caspase-3 (C, n=3 paired patient samples) were performed. Representative images of H&E and cleaved Caspase-3 (CC3) IHC shown, including normal breast epithelium treated with MDM2-PROTAC YX-02-030; scale bar 300 m. D-E. Mammosphere cultures were established from TNBC patient samples, treated with the indicated compounds, and live-cell detection of Caspase-3/7 activity (D, quadruplicate) and mammosphere survival/ATP production (E, quadruplicate) were measured.
# To assess the effects of YX-02-030 on TNBC patient samples, fresh, surgically-resected tumor from five TNBC patients was obtained, and 80% were from Black/African American patients (FIG. 26). Each tumor had TP53 missense mutations with two having the same hot-spot (R248Q) p53 mutation and one that had 3 TP53 mutations (FIG. 27A). […]
# [5] = test system: TNBC patient mammospheres; experiment: Patient TNBC 3D mammosphere cultures; format: cell-based, human
# Experimental: as §1
# For three of the patient TNBC tumor samples there was enough tissue to also establish 3D mammosphere cultures, and for one of these patients, normal breast epithelial tissue was also received that generated loose cell clusters.
# [6] = Mouse liver microsomal stability; format: in vitro ADME; settings: mouse liver microsomes, 0.5 μM compound
# Experimental: To translate cell-based activity to in vivo efficacy, the Mdm2 PROTACs were evaluated for metabolic stability and plasma compound levels after IP injection in the mouse. Mouse liver microsome stability was obtained for lead compounds (Alliance Pharma, Inc; Malvern PA) as a predictive measure for suitable exposure in a mouse pharmacokinetic study. In brief, test compounds (0.5 μM) are incubated with liver microsomes ([…]) and an NADPH-regenerating system (cofactor solution) and samples are taken at various timepoints, quenched with an acetonitrile solution containing an internal standard, then analyzed by LC-MS/MS. […] Mouse pharmacokinetic studies for YX-02-030 and YX-02-288 were completed. Mouse plasma levels were evaluated following intraperitoneal (10 mg/kg) administration. Plasma was collected at timepoints 0.25 h, 0.5 h, 1 h, 2 h, 4 h and 6 h after Mdm2 PROTAC injection. Plasma was deproteinized and analyzed for compound using LC-MS/MS methods. Three mice were used for each time point and one control animal (Alliance Pharma Inc, Malvern PA).
# [7] = mammospheres from three patient tumors
smiles,measurement,setting,value
CCOc1cc(C(C)(C)C)ccc1C1=N[C@](C)(c2ccc(Cl)cc2)[C@](C)(c2ccc(Cl)cc2)N1C(=O)N1CCN(CC(=O)NCCOCCOCCOCC(=O)N[C@H](C(=O)N2C[C@H](O)C[C@H]2C(=O)NCc2ccc(-c3scnc3C)cc2)C(C)(C)C)CC1 (racemic) [YX-02-030],observable proteins affected,[1],< 10%
same,proteins significantly changed out of 4237,[1],31 proteins
same,colony numbers,[2]; 1 (unit uncertain),significant reduction in colony numbers
same,colonies formed,[2]; 2 (unit uncertain),< 2 colonies
same,pIC50,[3],5.51
same,apoptosis markers by Western blot,[4]; explants,increased levels of cleaved Caspase-3 and cleaved PARP
same,MDM2 protein in patient tumors,[4]; within 4 days of treatment,MDM2 protein was lost
same,Caspase-3/7 activity,[5]; [7],significantly increased Caspase-3/7 activity
same,mammosphere survival,[5]; [7],reduced survival
same,effect on normal breast epithelial clusters,[5]; normal breast epithelial tissue of one patient,remained largely unaffected
same,half-life at 0.5 μM,[6],25.9 min

# Source: patent US20260053931A1, “MDM2 TARGETING PROTACS” (THE WISTAR INSTITUTE OF ANATOMY AND BIOLOGY, priority 2023, published 2026)
